Assay results reported in publication PMC5218480 (PLoS ONE, 2017).

Tested on: MV-4-11 cells
Assay: Gene expression microarray analysis (Affymetrix PrimeView) and GSEA
Format: cell-based, human
Set-up: RFU PODN (11730768_x_at) / Fold change /veh PODN (11730768_x_at) / RFU LINC00158 (11744669_a_at) / Fold change /veh LINC00158 (11744669_a_at) / RFU DUSP10 (11751237_a_at) / Fold change /veh DUSP10 (11751237_a_at) / RFU ID3 (11757404_x_at) / Fold change /veh ID3 (11757404_x_at) / RFU PLEKHG5 (11737974_s_at) / Fold change /veh PLEKHG5 (11737974_s_at) / RFU LRRC4B (11730491_at) / Fold change /veh LRRC4B (11730491_at) / RFU GIMAP4 (11747438_a_at) / Fold change /veh GIMAP4 (11747438_a_at) / RFU KRT8 (11758183_x_at) / Fold change /veh KRT8 (11758183_x_at) / RFU CNN1 (11734310_a_at) / Fold change /veh CNN1 (11734310_a_at) / RFU VPS37D (11726825_at) / Fold change /veh VPS37D (11726825_at) / RFU C10orf10 (11716522_x_at) / Fold change /veh C10orf10 (11716522_x_at) / RFU KIR2DL2 /// KIR2DL4 /// KIR2DL5A /// KIR2DL5B /// KIR2DS1 /// KIR2DS2 /// KIR2DS3 /// KIR2DS4 /// KIR3DL3 /// KIR3DL3 /// KIR3DS1 (11738374_at) / Fold change /veh KIR2DL2 /// KIR2DL4 /// KIR2DL5A /// KIR2DL5B /// KIR2DS1 /// KIR2DS2 /// KIR2DS3 /// KIR2DS4 /// KIR3DL3 /// KIR3DL3 /// KIR3DS1 (11738374_at) / RFU C1QL1 (11718748_at) / Fold change /veh C1QL1 (11718748_at) / RFU TMPRSS4 (11747572_a_at) / Fold change /veh TMPRSS4 (11747572_a_at) / RFU HAMP (11756126_x_at) / Fold change /veh HAMP (11756126_x_at) / RFU RNFT2 (11725882_a_at) / Fold change /veh RNFT2 (11725882_a_at) / RFU NR4A2 (11747474_a_at) / Fold change /veh NR4A2 (11747474_a_at) / RFU ABCC12 (11746883_a_at) / Fold change /veh ABCC12 (11746883_a_at) / RFU TMEM136 (11760407_x_at) / Fold change /veh TMEM136 (11760407_x_at) / RFU CLDN22 /// WWC2 (11732394_at) / Fold change /veh CLDN22 /// WWC2 (11732394_at) / RFU HLA-DPB1 (11760878_x_at) / Fold change /veh HLA-DPB1 (11760878_x_at) / RFU SPINT1 (11716480_a_at) / Fold change /veh SPINT1 (11716480_a_at) / RFU GAP43 (11754022_s_at) / Fold change /veh GAP43 (11754022_s_at) / RFU A4GNT (11735810_at) / Fold change /veh A4GNT (11735810_at) / RFU PRB3 (11715151_x_at) / Fold change /veh PRB3 (11715151_x_at) / RFU TUBB4B (11761932_at) / Fold change /veh TUBB4B (11761932_at) / RFU CAPN14 (11732068_a_at) / Fold change /veh CAPN14 (11732068_a_at) / RFU TMCC2 (11721928_a_at) / Fold change /veh TMCC2 (11721928_a_at) / RFU IRGQ (11745062_a_at) / Fold change /veh IRGQ (11745062_a_at) / RFU FAM174B (11720279_a_at) / Fold change /veh FAM174B (11720279_a_at) / RFU TMPRSS4 (11748680_a_at) / Fold change /veh TMPRSS4 (11748680_a_at) / RFU FAM212B (11763350_a_at) / Fold change /veh FAM212B (11763350_a_at) / RFU PLEKHG5 (11743358_a_at) / Fold change /veh PLEKHG5 (11743358_a_at) / RFU ZSCAN30 (11745921_a_at) / Fold change /veh ZSCAN30 (11745921_a_at) / RFU CMKLR1 (11741424_a_at) / Fold change /veh CMKLR1 (11741424_a_at) / RFU LOC101060620 /// MAPK8IP1 (11723275_at) / Fold change /veh LOC101060620 /// MAPK8IP1 (11723275_at) / RFU SPTSSB (11747773_x_at) / Fold change /veh SPTSSB (11747773_x_at) / RFU PRSS12 (11739890_at) / Fold change /veh PRSS12 (11739890_at) / RFU BIN1 (11741810_x_at) / Fold change /veh BIN1 (11741810_x_at) / RFU WNT11 (11732464_a_at) / Fold change /veh WNT11 (11732464_a_at) / RFU C10orf10 (11716521_a_at) / Fold change /veh C10orf10 (11716521_a_at) / RFU C5orf56 (11738089_at) / Fold change /veh C5orf56 (11738089_at) / RFU CYB561 (11721691_x_at) / Fold change /veh CYB561 (11721691_x_at) / RFU ANKRD19P (11752326_a_at) / Fold change /veh ANKRD19P (11752326_a_at) / RFU OR2T12 /// OR2T33 /// OR2T8 (11738714_s_at) / Fold change /veh OR2T12 /// OR2T33 /// OR2T8 (11738714_s_at) / RFU VCAN (11748164_a_at) / Fold change /veh VCAN (11748164_a_at) / RFU JSRP1 (11732532_at) / Fold change /veh JSRP1 (11732532_at) / RFU KRTAP10-11 (11738290_x_at) / Fold change /veh KRTAP10-11 (11738290_x_at) / RFU MYO3A (11730013_a_at) / Fold change /veh MYO3A (11730013_a_at) / RFU EBF3 (11725865_a_at) / Fold change /veh EBF3 (11725865_a_at) / RFU CAMK2N1 (11719241_x_at) / Fold change /veh CAMK2N1 (11719241_x_at) / RFU C5orf56 (11738088_a_at) / Fold change /veh C5orf56 (11738088_a_at) / RFU OLFML3 (11715873_a_at) / Fold change /veh OLFML3 (11715873_a_at) / RFU LOC100653217 /// NTM (11731650_a_at) / Fold change /veh LOC100653217 /// NTM (11731650_a_at) / RFU MAPK11 (11762145_a_at) / Fold change /veh MAPK11 (11762145_a_at) / RFU FIZ1 (11724087_x_at) / Fold change /veh FIZ1 (11724087_x_at) / RFU OASL (11726364_x_at) / Fold change /veh OASL (11726364_x_at) / RFU SOX15 (11748057_x_at) / Fold change /veh SOX15 (11748057_x_at) / RFU CD79A (11719716_a_at) / Fold change /veh CD79A (11719716_a_at) / RFU HIST1H1D (11736915_at) / Fold change /veh HIST1H1D (11736915_at) / RFU CASKIN2 (11723855_a_at) / Fold change /veh CASKIN2 (11723855_a_at) / RFU LOC730098 (11760151_x_at) / Fold change /veh LOC730098 (11760151_x_at) / RFU OR4N2 (11742367_at) / Fold change /veh OR4N2 (11742367_at) / RFU PRRT2 (11749266_a_at) / Fold change /veh PRRT2 (11749266_a_at) / RFU SNX32 (11753110_a_at) / Fold change /veh SNX32 (11753110_a_at) / RFU CDHR5 (11726645_a_at) / Fold change /veh CDHR5 (11726645_a_at) / RFU RCAN1 (11760418_a_at) / Fold change /veh RCAN1 (11760418_a_at) / RFU FAM167A (11723789_a_at) / Fold change /veh FAM167A (11723789_a_at) / RFU FAM26E (11764081_at) / Fold change /veh FAM26E (11764081_at) / RFU ISYNA1 (11749810_s_at) / Fold change /veh ISYNA1 (11749810_s_at) / RFU ACY1 (11761880_at) / Fold change /veh ACY1 (11761880_at) / RFU 11764098_at / Fold change /veh 11764098_at / RFU SAMD14 (11745864_x_at) / Fold change /veh SAMD14 (11745864_x_at) / RFU NPB (11741838_a_at) / Fold change /veh NPB (11741838_a_at) / RFU TMPRSS6 (11731388_a_at) / Fold change /veh TMPRSS6 (11731388_a_at) / RFU KRTAP10-2 (11738614_at) / Fold change /veh KRTAP10-2 (11738614_at) / RFU ARHGAP8 /// PRR5-ARHGAP8 (11727945_x_at) / Fold change /veh ARHGAP8 /// PRR5-ARHGAP8 (11727945_x_at) / RFU KRTAP5-7 /// NADSYN1 (11734609_at) / Fold change /veh KRTAP5-7 /// NADSYN1 (11734609_at) / RFU RASL12 (11751679_a_at) / Fold change /veh RASL12 (11751679_a_at) / RFU CDKN2B (11736163_a_at) / Fold change /veh CDKN2B (11736163_a_at) / RFU PRF1 (11729649_at) / Fold change /veh PRF1 (11729649_at) / RFU, ZNF638 /// ZNF638-IT1 / Fold change vs veh, ZNF638 /// ZNF638-IT1 / RFU, PANK3 / Fold change vs veh, PANK3 / RFU, SH3YL1 / Fold change vs veh, SH3YL1 / RFU, ZEB2 / Fold change vs veh, ZEB2 / RFU, NRIP1 / Fold change vs veh, NRIP1 / RFU, PTTG1IP / Fold change vs veh, PTTG1IP / RFU, CAPN2 / Fold change vs veh, CAPN2 / RFU, MED14 / Fold change vs veh, MED14 / RFU, SNORA58 / Fold change vs veh, SNORA58 / RFU, C1orf63 / Fold change vs veh, C1orf63 / RFU, LRRFIP1 / Fold change vs veh, LRRFIP1 / RFU, NDUFAF7 / Fold change vs veh, NDUFAF7 / RFU, SLC12A2 / Fold change vs veh, SLC12A2 / RFU, IBTK / Fold change vs veh, IBTK / RFU, ESF1 / Fold change vs veh, ESF1 / Fold change vs veh, TMEM50B / RFU, TAOK1 / Fold change vs veh, TAOK1 / RFU, ACBD3 / Fold change vs veh, ACBD3 / RFU, TMA16 / Fold change vs veh, TMA16 / RFU, RWDD3 / Fold change vs veh, RWDD3 / RFU, BCAT1 / Fold change vs veh, BCAT1 / RFU, EDEM3 / Fold change vs veh, EDEM3 / RFU, TMEM33 / Fold change vs veh, TMEM33 / RFU, WDR75 / Fold change vs veh, WDR75 / RFU, AHCTF1 / Fold change vs veh, AHCTF1 / RFU, TFRC / Fold change vs veh, TFRC / RFU, ZDHHC17 / Fold change vs veh, ZDHHC17 / RFU, NOM1 / Fold change vs veh, NOM1 / RFU, ARL8B / Fold change vs veh, ARL8B / RFU, ZBTB11 / Fold change vs veh, ZBTB11 / RFU, TAMM41 / Fold change vs veh, TAMM41 / RFU, KIAA1704 /// LOC100996395 / Fold change vs veh, KIAA1704 /// LOC100996395 / RFU, ING1 / Fold change vs veh, ING1 / RFU, TRMT61B / Fold change vs veh, TRMT61B / RFU, FUBP3 / Fold change vs veh, FUBP3 / RFU, TP53 / Fold change vs veh, TP53 / RFU, TNKS2 / Fold change vs veh, TNKS2 / RFU, ZFP14 / Fold change vs veh, ZFP14 / RFU, ACTR2 / Fold change vs veh, ACTR2 / RFU, PPP3R1 / Fold change vs veh, PPP3R1 / RFU, PIK3R1 / Fold change vs veh, PIK3R1 / RFU, HNRNPA1 / Fold change vs veh, HNRNPA1 / RFU, RNF170 / Fold change vs veh, RNF170 / RFU, ZNF28 / Fold change vs veh, ZNF28 / RFU, RNGTT / Fold change vs veh, RNGTT / RFU, OGT / Fold change vs veh, OGT / RFU, BRD1 / Fold change vs veh, BRD1 / RFU, MARS / Fold change vs veh, MARS / RFU, ZNF655 / Fold change vs veh, ZNF655 / RFU, FAHD1 / Fold change vs veh, FAHD1 / RFU, BDP1 / Fold change vs veh, BDP1 / RFU, LRRCC1 / Fold change vs veh, LRRCC1 / RFU, ARID1A / Fold change vs veh, ARID1A / RFU, ZNF146 / Fold change vs veh, ZNF146 / RFU, ZNF330 / Fold change vs veh, ZNF330 / RFU, GPN3 / Fold change vs veh, GPN3 / RFU, C9orf123 / Fold change vs veh, C9orf123 / RFU, N4BP2L2 / Fold change vs veh, N4BP2L2 / RFU, ARFIP1 / Fold change vs veh, ARFIP1 / RFU, FAM179B / Fold change vs veh, FAM179B / RFU, BCL10 / Fold change vs veh, BCL10 / RFU, UHRF1BP1L / Fold change vs veh, UHRF1BP1L / RFU, BET1 / Fold change vs veh, BET1 / RFU, CNOT2 / Fold change vs veh, CNOT2 / RFU, ZNF268 / Fold change vs veh, ZNF268 / Fold change vs veh, ZNF507 / RFU, DGCR2 / Fold change vs veh, DGCR2 / RFU, WDSUB1 / Fold change vs veh, WDSUB1 / Fold change vs veh, HSP90B1 /// MIR3652 / RFU, ADSS / Fold change vs veh, ADSS / RFU, GK / Fold change vs veh, GK / RFU, ZNF148 / Fold change vs veh, ZNF148 / RFU, TAF9 / Fold change vs veh, TAF9 / RFU, SLC1A5 / Fold change vs veh, SLC1A5 / RFU, SLMO2 / Fold change vs veh, SLMO2 / RFU, ABCC4 / Fold change vs veh, ABCC4 / RFU, LOC101060439 /// RAP1B / Fold change vs veh, LOC101060439 /// RAP1B / RFU, RFX7 / Fold change vs veh, RFX7 / RFU, GTPBP10 / Fold change vs veh, GTPBP10 / RFU, CNEP1R1 / Fold change vs veh, CNEP1R1 / RFU, BIVM-ERCC5 /// ERCC5 / Fold change vs veh, BIVM-ERCC5 /// ERCC5 / RFU, ILF3 / Fold change vs veh, ILF3 / RFU 11762660_at / Fold change /veh 11762660_at / RFU VCAN (11757783_s_at) / Fold change /veh VCAN (11757783_s_at) / RFU DDX43 (11728927_at) / Fold change /veh DDX43 (11728927_at) / RFU KRT8 (11758188_x_at) / Fold change /veh KRT8 (11758188_x_at) / RFU NKD1 (11759106_at) / Fold change /veh NKD1 (11759106_at) / RFU SRD5A1 (11742802_a_at) / Fold change /veh SRD5A1 (11742802_a_at) / RFU TPSAB1 /// TPSB2 (11721975_s_at) / Fold change /veh TPSAB1 /// TPSB2 (11721975_s_at) / RFU GSTM3 (11746129_a_at) / Fold change /veh GSTM3 (11746129_a_at) / RFU IL23R (11737362_x_at) / Fold change /veh IL23R (11737362_x_at) / RFU TMEM51 (11727254_a_at) / Fold change /veh TMEM51 (11727254_a_at) / RFU PIWIL2 (11732686_x_at) / Fold change /veh PIWIL2 (11732686_x_at) / RFU ORM1 (11744905_x_at) / Fold change /veh ORM1 (11744905_x_at) / RFU CCDC152 (11743942_at) / Fold change /veh CCDC152 (11743942_at) / RFU ECM1 (11717891_a_at) / Fold change /veh ECM1 (11717891_a_at) / RFU IL23R (11748794_a_at) / Fold change /veh IL23R (11748794_a_at) / RFU TNFAIP8L3 (11732012_x_at) / Fold change /veh TNFAIP8L3 (11732012_x_at) / RFU MBOAT4 (11741988_at) / Fold change /veh MBOAT4 (11741988_at) / RFU 11764193_at / Fold change /veh 11764193_at / RFU TMEM53 (11763286_at) / Fold change /veh TMEM53 (11763286_at) / RFU MAGEB2 (11727129_at) / Fold change /veh MAGEB2 (11727129_at) / RFU TMEM200A (11744735_a_at) / Fold change /veh TMEM200A (11744735_a_at) / RFU CCDC152 (11751479_a_at) / Fold change /veh CCDC152 (11751479_a_at) / RFU FAM211A (11726209_a_at) / Fold change /veh FAM211A (11726209_a_at) / RFU RGS16 (11746705_a_at) / Fold change /veh RGS16 (11746705_a_at) / RFU VCAN (11755009_s_at) / Fold change /veh VCAN (11755009_s_at) / RFU RHOB (11743442_s_at) / Fold change /veh RHOB (11743442_s_at) / RFU RGS16 (11720943_a_at) / Fold change /veh RGS16 (11720943_a_at) / RFU RGS16 (11720944_at) / Fold change /veh RGS16 (11720944_at) / RFU, VPS4B / Fold change vs veh, VPS4B / RFU, CREB1 / Fold change vs veh, CREB1 / RFU, DNAJC13 / Fold change vs veh, DNAJC13 / RFU, GNAQ / Fold change vs veh, GNAQ / RFU, CDK5R1 / Fold change vs veh, CDK5R1 / RFU, ZRANB3 / Fold change vs veh, ZRANB3 / RFU, CUL4A / Fold change vs veh, CUL4A / RFU, CCNY / Fold change vs veh, CCNY / RFU, UFL1 / Fold change vs veh, UFL1 / RFU, COG3 / Fold change vs veh, COG3 / RFU, DIAPH2 / Fold change vs veh, DIAPH2 / RFU, SKA2 / Fold change vs veh, SKA2 / RFU, AFF3 / Fold change vs veh, AFF3 / RFU, LMF1 / Fold change vs veh, LMF1 / RFU, IPO11 / Fold change vs veh, IPO11 / RFU, DFFB / Fold change vs veh, DFFB / RFU, FOXP1 / Fold change vs veh, FOXP1 / RFU, CARD8 / Fold change vs veh, CARD8 / RFU, STRN3 / Fold change vs veh, STRN3 / RFU, ADK / Fold change vs veh, ADK / RFU, RASSF2 / Fold change vs veh, RASSF2 / RFU, WIPF1 / Fold change vs veh, WIPF1 / RFU, LARP1B / Fold change vs veh, LARP1B / RFU, RASA1 / Fold change vs veh, RASA1 / RFU, RB1 / Fold change vs veh, RB1 / RFU, PPFIA1 / Fold change vs veh, PPFIA1 / RFU, MAT2A / Fold change vs veh, MAT2A / RFU, CCT5 / Fold change vs veh, CCT5 / RFU, WDR92 / Fold change vs veh, WDR92 / RFU, CUX1 / Fold change vs veh, CUX1 / RFU, TTC7A / Fold change vs veh, TTC7A / RFU, TMEM135 / Fold change vs veh, TMEM135 / RFU, DEPTOR / Fold change vs veh, DEPTOR / RFU, CPM / Fold change vs veh, CPM / RFU, DNAJB6 / Fold change vs veh, DNAJB6 / RFU, CACNA2D3 / Fold change vs veh, CACNA2D3 / RFU, DTX4 / Fold change vs veh, DTX4 / RFU, TFCP2 / Fold change vs veh, TFCP2 / RFU, GMCL1 /// GMCL1P1 / Fold change vs veh, GMCL1 /// GMCL1P1 / RFU, AEBP2 / Fold change vs veh, AEBP2 / RFU, SNHG1 /// SNORD22 /// SNORD25 /// SNORD26 /// SNORD27 /// SNORD28 /// SNORD29 /// SNORD31 / Fold change vs veh, SNHG1 /// SNORD22 /// SNORD25 /// SNORD26 /// SNORD27 /// SNORD28 /// SNORD29 /// SNORD31 / Fold change (Aza/veh), C12orf56 (ProbeSet 11735607_a_at) / Fold change (ACY-1035/veh), C12orf56 (ProbeSet 11735607_a_at) / Fold change (Aza/veh), FGFR1OP (ProbeSet 11751329_s_at) / Fold change (ACY-1035/veh), FGFR1OP (ProbeSet 11751329_s_at) / Fold change (Aza/veh), VPS36 (ProbeSet 11739960_a_at) / Fold change (ACY-1035/veh), VPS36 (ProbeSet 11739960_a_at) / RFU SYPL1 (11715823_x_at) / Fold change /veh SYPL1 (11715823_x_at) / RFU IGFBP7 (11715501_s_at) / Fold change /veh IGFBP7 (11715501_s_at) / RFU REEP3 (11722064_at) / Fold change /veh REEP3 (11722064_at) / RFU IGLL1 (11728026_x_at) / Fold change /veh IGLL1 (11728026_x_at): dose or concentration left out as unconfirmed
Settings: MV-4-11 cells, 48 hours

Nc1ccc(-c2cccs2)cc1NC(=O)c1ccc2c(c1)cc(C1CC1)n2CCN1CCOCC1 [ACY-1035]
Fold change /veh NR4A2 (11747474_a_at): 0.99
